Test [1] deals with human TNBC cells (human MDA231). Description: Triple negative breast cancer tumors in mice. It counts as in vivo, nude mice. The following applies: doxorubicin alone, once a week at 3 mg/kg, FIG. 14. As for the experimental part:
Therefore, 32 nude mice were inoculated subcutaneously (S.C.) with 9 million human TNBC cells (human MDA231, ATCC) per mouse. Cells were cultured as known in the art, for example, as described above. When the tumors exceeded a volume of 40 mm^3, the mice were randomly divided into five groups, as follows. The “Control” group (n=5) was treated with 5% mannitol; the “dTCApFs” group (n=5) was treated once a week with dTCApFs at 15 mg/kg; the “Dox” group (n=5) was treated once a week with doxorubicin (Sigma Aldrich) at 3 mg/kg; the “dTCApFs+Dox next day” (n=8) group was treated with dTCApFs at 15 mg/kg and 24 hours later also with doxorubicin, at 3 mg/kg; and the “dTCApFs+Dox same day” (n=9) group was treated with dTCApFs at 15 mg/kg and with doxorubicin at 3 mg/kg, on same day.

A further test has as its system B16 cells. In words: Melanoma tumors in mice, dTCApFs and doxorubicin. The test is classed as in vivo, C57bl/6 mice. The conditions noted are these: doxorubicin alone, once a week at 3 mg/kg, FIG. 17. As for the experimental part: In order to examine the effect of a combination of dTCApFs and doxorubicin on melanoma tumor volume, the following experiments were performed in mice. C57bl/6 mice (28) were inoculated SC with 0.2 million B16 cells (ATCC) per mouse. B16 melanoma is a murine tumor cell line used for research as a model for human skin cancers. When tumors exceeded a volume of 50 mm^3, the mice were randomly divided into 4 groups, as follows. “Control” group (n=6) was treated with 5% mannitol; “dTCApFs” treated group (n=6) was treated once a week with dTCApFs (at 15 mg/kg); “Dox” treated group (n=6) was treated once a week with doxorubicin (at 3 mg/kg); and dTCApFs+Dox same day” group (n=10) was treated once a week with dTCApFs and doxorubicin (at 15 mg/kg and 3 mg/kg, respectively), when both agents were administered on the same day.

The test system of test [2] is human pancreatic cancer cells (BxPC3). In words: BrdU incorporation assay. The conditions noted are these: Taxol alone, 2 nM or 4 nM, FIG. 13B. The test is classed as cell-based. How it is done: (§1) Cells were placed at 2,000 cells/well in the middle of a 96 well plate with 100 μl DMEM (life science 41965-039) and 10% fetal calf serum (FBS, Biological industries 14-127-1A) for 24 hours in an incubator at 37° C. with 5% CO2. The medium was then replaced to 200 μl DMEM with 2.5% FBS and Taxol (sigma T7402) at a final concentration of 2 nM or 4 nM in DMSO or dTCApFs (nextar ISK353-01 batch 351-01/1.68) at a final concentration of 25 μg/ml in DMSO. The medium in the control cells was replaced by DMEM and FBS as indicated above. The maximal concentration of DMSO in the cell wells was less than 0.5%. Four wells were used for each concentration.
(§2) Taxol- and dTCApFs-treated cells as well as the control cells were further incubated for 24 hours in the presence of BrdU as follows: 20 μl BrdU reagent (diluted 1:100 in DMEM supplemented with 2.5% FBS) was added to the cells and the plate was incubated 24 hours in 37° degrees incubator with 5% CO2. BrdU ELISA was performed according to the kit protocol (Millipore #2752).
(§3) Cells were placed at 2000 cells/well in the middle of a 96 well plate with 100 μl DMEM and 10% FBS for 24 hours in an incubator at 37° C. with 5% CO2. The medium was then replaced to 200 μl DMEM with 2.5% FBS and dTCApFs at a final concentration of 25 μg/ml (nextar ISK353-01 batch 351-01/1.68) in DMSO. The maximal concentration of DMSO in the cells wells was less than 0.5%. […]

The subject of test [3] is human ovarian cancer cells (OV90). In words: BrdU incorporation assay. The test is classed as cell-based. The following applies: Taxol alone, 2 nM or 4 nM, FIG. 13A. How it is done: as §1, §2, §3

SMILES strings stand for the structures.

Consider `COc1cccc2c1C(=O)c1c(O)c3c(c(O)c1C2=O)C[C@@](O)(C(=O)CO)C[C@@H]3O[C@H]1C[C@H](N)[C@H](O)[C@H](C)O1` [doxorubicin], for which the values for the tumor volume result (in test [1]; in the test on B16 cells) were “clear increase in tumor volume” and “tumor volume clearly increased”, respectively.
On to `CC(=O)O[C@H]1C(=O)[C@@]2(C)[C@H]([C@H](OC(=O)c3ccccc3)[C@]3(O)C[C@H](OC(=O)[C@H](O)[C@@H](NC(=O)c4ccccc4)c4ccccc4)C(C)=C1C3(C)C)[C@]1(OC(C)=O)CO[C@@H]1C[C@@H]2O` [Taxol, Paclitaxel], for which the “cell viability (BrdU incorporation)” value in test [2] and in test [3] was “no effect on cell viability was observed” in each case.

The values above are taken from patent US11813305B2, “Endoplasmic reticulum stress as a predictive tool in cancer therapy and a combination therapy for the treatment of cancer” (IMMUNE SYSTEM KEY LTD., priority 2016, dated 2023).
